# Measurements from patent publication US20070037752A1, “Novel alanyl-amino peptidase inhibitors for functionally influencing different cells and treating immunological, inflammatory, neuronal, and other diseases” (priority 2003, published 2007).
# Where two headings read alike, the source gives them in different places.
# Target: alanyl aminopeptidases (APN) (Homo sapiens, UniProt P15144)
# Test: Inhibition of alanyl aminopeptidase enzymatic activity, fluorogenic substrate (Ala)2-rhodamine 110
# Assay type: biochemical
# Method: The inhibition characteristics measured are referred to as IC-50 values or ID50 values (the latter marked with “*”) for said enzyme. The enzymatic activity was determined by means of the fluorogenic substrate/product (Ala)2-rhodamine 110.
# [1] = Table 3, unstarred values, read-out: IC50APN
# [2] = Table 4, starred values = ID50, read-out: ID50 APN (values marked with *)
# [3] = Table 4, unstarred values, read-out: IC50APN
# [4] = Table 9, unstarred values, read-out: IC50APN
# [5] = Table 8, unstarred values, read-out: IC50APN
# [6] = Table 3, starred values = ID50, read-out: ID50 APN (values marked with *)
# [7] = Table 9, starred values = ID50, read-out: ID50 APN (values marked with *)
# alanyl aminopeptidases (APN), sequence (P15144 whole entry, species assumed): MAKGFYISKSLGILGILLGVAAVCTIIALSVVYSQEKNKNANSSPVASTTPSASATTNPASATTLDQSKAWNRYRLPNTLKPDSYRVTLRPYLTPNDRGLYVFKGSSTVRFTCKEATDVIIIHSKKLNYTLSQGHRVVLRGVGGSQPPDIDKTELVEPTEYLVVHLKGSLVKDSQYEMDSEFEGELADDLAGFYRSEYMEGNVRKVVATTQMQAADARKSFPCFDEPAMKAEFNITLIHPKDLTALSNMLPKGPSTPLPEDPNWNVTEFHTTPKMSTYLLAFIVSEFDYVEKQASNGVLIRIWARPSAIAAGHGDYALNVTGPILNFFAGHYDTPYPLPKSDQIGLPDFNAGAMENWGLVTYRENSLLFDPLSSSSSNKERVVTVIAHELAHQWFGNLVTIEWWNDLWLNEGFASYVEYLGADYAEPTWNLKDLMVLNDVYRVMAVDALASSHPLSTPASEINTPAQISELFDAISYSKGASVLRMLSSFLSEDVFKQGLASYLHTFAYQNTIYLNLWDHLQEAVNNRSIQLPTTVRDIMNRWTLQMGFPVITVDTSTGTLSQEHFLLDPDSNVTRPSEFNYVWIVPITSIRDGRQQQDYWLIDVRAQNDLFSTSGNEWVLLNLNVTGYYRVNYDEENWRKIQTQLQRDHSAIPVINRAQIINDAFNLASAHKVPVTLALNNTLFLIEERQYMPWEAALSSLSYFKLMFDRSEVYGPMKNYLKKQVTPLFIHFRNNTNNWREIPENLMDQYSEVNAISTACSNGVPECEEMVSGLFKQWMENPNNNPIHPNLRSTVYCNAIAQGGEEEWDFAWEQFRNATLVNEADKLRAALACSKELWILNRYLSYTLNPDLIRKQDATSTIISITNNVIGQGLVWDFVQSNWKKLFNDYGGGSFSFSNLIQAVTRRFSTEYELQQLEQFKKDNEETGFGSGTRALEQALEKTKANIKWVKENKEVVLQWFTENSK
structure (smiles),measurement,setting,value
O=C(N/N=C/c1ccco1)c1ccc(=O)[nH]n1 [A3.130],IC50,[1],22.4 µM
COC(=O)c1ccc(-c2ccc(/C=C3\C(=O)N(CCCO)C(=O)C(C#N)=C3C)o2)cc1 [A3.018],IC50,[1],5 µM
N#Cc1cc(N2CC3CC(C2)c2cccc(=O)n2C3)c([N+](=O)[O-])cc1C#N (stereo not drawn) [A11.004],IC50,"Table 11, read-out: IC50APN",8.9 µM
Cc1cc(Cl)ccc1OCCCC(=O)NO [A12.006],IC50,"Table 12, read-out: IC50APN",5.6 µM
O=C(N/N=C/c1ccco1)c1ccc(NCc2ccccc2)cc1 [A4.184],IC50,[2],294 µM
Oc1ccc(Cl)cc1/N=C/c1ccc(-c2ccc(F)cc2)o1 [A3.305],IC50,[1],77.3 µM
COc1ccc(C(=O)N/N=C/c2ccco2)cc1 [A4.065],IC50,[3],22.6 µM
CCOC(=O)C1CCN(C(=O)/C(=C/c2ccco2)NC(=O)c2ccc(C)c(C)c2)CC1 [A9.089],IC50,[4],34.5 µM
CSCCC1NC(=S)N(Cc2ccccc2)C1=O (stereo not drawn) [A7.008],IC50,"Table 7, read-out: IC50APN",14.1 µM
COc1ccc(OC)c(NC(=O)/C=C/c2ccc(C)o2)c1 [A3.277],IC50,[1],56.8 µM
O=C(/C=C/c1ccco1)Nc1ccc(C(=O)O)cc1 [A3.033],IC50,[1],8.4 µM
O=C(N/N=C/c1ccco1)c1cc(-c2ccco2)n[nH]1 [A3.113],IC50,[1],20.9 µM
CCOC(=O)N1CCc2c(sc(NC(=O)c3ccc(F)cc3)c2C(=O)Nc2ccc(Br)cc2)C1 [A9.013],IC50,[4],7.3 µM
Cc1ccc(/C=N/NC(=O)c2ccc(NC(=O)c3ccccc3C)cc2)o1 [A3.136],IC50,[1],22.8 µM
C/C(=N\N=C1\SC(CC(=O)O)C(=O)N1c1ccccc1)c1ccco1 (stereo not drawn) [A3.174],IC50,[1],28.6 µM
O=C(Cc1ccccc1)NCC(=O)N/N=C/c1ccco1 [A4.161],IC50,[2],73.1 µM
COc1cc(/C=N/NC(=O)/C(=C\c2ccc(N(C)C)cc2)NC(=O)c2ccccc2)cc([N+](=O)[O-])c1O [A4.069],IC50,[3],23 µM
O=C(N/N=C/c1ccco1)c1ccc([N+](=O)[O-])cc1 [A4.185],IC50,[2],305 µM
O=C(N/N=C/c1ccco1)c1cccc(I)c1 [A4.111],IC50,[3],34.7 µM
Cc1cc(I)ccc1CC(=O)CCC(=O)N/N=C/c1ccco1 [A3.095],IC50,[1],9.5 µM
Cc1ccc(/C=C/C(=O)Nc2ccccc2C(N)=O)o1 [A3.245],IC50,[1],45 µM
O=C(C1c2ccccc2Oc2ccccc21)n1cc(Cl)cn1 [A9.075],IC50,[4],29.1 µM
O=C(Nc1cccc(/N=C/c2cc(Br)cc(Br)c2O)c1)c1ccco1 [A3.031],IC50,[1],8.2 µM
Cc1ccc(/C=N/NC2=NC(=O)CS2)o1 [A8.022],IC50,[5],26.4 µM
O=C1C(Cc2c[nH]c3ccccc23)NC(=S)N1c1ccccc1 (stereo not drawn) [A8.009],IC50,[5],12.4 µM
O=C(CNC(=O)c1cccc(F)c1)N/N=C/c1ccco1 [A3.333],IC50,[6],155 µM
COc1ccc(CSCC(=O)N/N=C/c2ccco2)cc1 [A3.291],IC50,[6],66 µM
O=C(CNC(=O)c1ccccc1F)N/N=C/c1ccc([N+](=O)[O-])o1 [A11.032],IC50,"Table 11, read-out: IC50APN",60 µM
CC(/C=C/c1ccco1)=N\NC(=O)COc1ccc(C(C)(C)C)cc1 [A3.269],IC50,[1],50 µM
C/C(=C\c1ccc(C(C)C)cc1)C1NCC(c2ccc([N+](=O)[O-])cc2)O1 (stereo not drawn) [A3.345],IC50,[6],293 µM
Cc1ccc(/C=N/NC(=O)c2cccc(NC(=O)c3ccc(F)cc3)c2)o1 [A3.038],IC50,[1],9.8 µM
CC(/C=C/c1ccco1)=N\NC(=O)CNc1ccc2ccccc2c1 [A3.173],IC50,[1],28.5 µM
O=C1C(Cc2ccc3[nH]ccc3c2)NC(=S)N1c1ccccc1 (stereo not drawn) [A7.012],IC50,"Table 7, read-out: IC50APN",36.9 µM
O=C(N/N=C/c1ccco1)c1ccc(=O)[nH]n1 [A4.063],IC50,[3],22.4 µM
O=C1C(Cc2ccccc2)NC(=S)N1c1ccccc1 (stereo not drawn) [A3.151],IC50,[1],26.1 µM
CC1=C(C#N)C(=O)N(CCO)C(=O)/C1=C\c1ccc(-c2ccc(C)c(Cl)c2)o1 [A9.121],IC50,[4],125 µM
CC(C)Oc1ccc(Br)cc1C(=O)N/N=C/c1ccco1 [A3.248],IC50,[1],46.6 µM
O=C(N/C(=C\c1ccco1)C(=O)N1CCOCC1)c1ccccc1Cl [A9.066],IC50,[4],25.5 µM
O=C(N/N=C/c1ccco1)c1cccc(Br)c1 [A4.152],IC50,[3],62.7 µM
O=C(N/C(=C\c1cccc([N+](=O)[O-])c1)C(=O)N(CCO)CCO)c1ccco1 [A11.037],IC50,"Table 11, read-out: IC50APN",244 µM
Cc1ccc(OCC(=O)N/N=C\c2ccco2)c(C)c1 [A3.309],IC50,[6],81.8 µM
O=C(CCC(=O)Nc1ccc(Br)cc1)N/N=C/c1ccco1 [A3.019],IC50,[1],5.2 µM
O=C1C(Cc2ccc(O)cc2)NC(=S)N1C1CCCCC1 (stereo not drawn) [A7.011],IC50,"Table 7, read-out: IC50APN",21.3 µM
Cc1c(Cl)cccc1NC(=O)C(=O)N/N=C/c1c(OCc2ccccc2)ccc2ccccc12 [A4.006],IC50,[3],6.6 µM
O=C(Nc1ccc(O)cc1C(=O)O)c1cccc(N2C(=O)c3cccc4c([N+](=O)[O-])ccc(c34)C2=O)c1 [A9.063],IC50,[4],23.6 µM
O=C(N/N=C/c1cc([N+](=O)[O-])ccc1O)c1ccc(O)cc1O [A11.013],IC50,"Table 11, read-out: IC50APN",20.2 µM
O=C(CCCCCN1C(=O)c2cccc3cccc(c23)C1=O)NO [A9.032],IC50,[4],14.1 µM
CCOC(=O)c1cc(Br)ccc1-c1ccc(/C=C2\C(=O)N=C(O)C(C#N)=C2C)o1 [A9.098],IC50,[4],49.9 µM
COc1ccc(-c2nc(C)sc2CC(=O)O)cc1 [A3.111],IC50,[1],20.8 µM
CCc1ccc(NC(=O)C2CCN(S(=O)(=O)c3ccc(Cl)cc3)CC2)cc1 [A9.114],IC50,[7],80.4 µM
CC(CCc1ccccc1)C(=O)NO (stereo not drawn) [A12.044],IC50,"Table 12, read-out: IC50APN",25.2 µM
CCCOc1[nH]c(/N=C/c2ccccc2)c(C#N)c1C#N [A5.004],IC50,"Table 5, unstarred values, read-out: IC50APN",20 µM
CCCOC(=O)c1cc(-c2ccc(/C=C3/C(=O)N(CC(C)O)C(=O)C(C#N)=C3C)o2)ccc1Cl (stereo not drawn) [A13.017],IC50,"Table 13, read-out: IC50APN",32 µM
Cc1ccc(/C=N/NC(=O)c2ccc(N3CCCC3=O)cc2)o1 [A3.241],IC50,[1],44.2 µM
NNC(=O)c1ccc(NS(=O)(=O)c2cccs2)cc1 [A6.004],IC50,"Table 6, read-out: IC50APN",11.8 µM
CCOC(=O)c1cc(-c2ccc(/C=C3/C(=O)NC(=O)C(C#N)=C3C)o2)ccc1Cl [A3.268],IC50,[1],52.1 µM
NC(=S)N/N=C/c1ccco1 [A4.141],IC50,[3],50 µM
C/C(=N\N=C1\SC(CC(=O)O)C(=O)N1c1ccccc1)c1ccco1 (stereo not drawn) [A8.026],IC50,[5],28.6 µM
N/C(=N/OS(=O)(=O)c1ccc(C(F)(F)F)cc1)C1CSCCS1 (stereo not drawn) [A2.006],IC50,"Table 2, read-out: IC50APN",13.4 µM
O=C(CNC(=O)c1cccc(F)c1)N/N=C/c1ccco1 [A4.180],IC50,[2],155 µM
O=C(/C=C/c1ccco1)NCCCN1CCOCC1 [A9.127],IC50,[7],208 µM
Cc1ccc(/C=C(\NC(=O)c2ccccc2)C(=O)NCCN2CCOCC2)o1 [A9.103],IC50,[7],55 µM
O=C(COc1ccc(Br)cc1)NO [A12.009],IC50,"Table 12, read-out: IC50APN",6.4 µM
O=C(N/N=C/c1cccc([N+](=O)[O-])c1)c1ccco1 [A4.132],IC50,[3],45.4 µM
O=C(N/N=C/c1cc(Br)ccc1OC(=O)c1ccc([N+](=O)[O-])cc1)/C(=C\c1ccc2c(c1)OCO2)NC(=O)c1ccccc1 [A11.031],IC50,"Table 11, read-out: IC50APN",54.2 µM
Cc1nc(-c2ccc(Br)cc2)c(CC(=O)O)s1 [A3.313],IC50,[1],88.3 µM
COc1ccccc1C(=O)N/N=C/c1ccc(C)o1 [A3.211],IC50,[1],34.7 µM
CCOC(=O)CCCCC(=O)c1c(C)n(C(=O)c2ccc(N3C(=O)CCC3=O)cc2)c(=O)n1C(=O)c1ccc(N2C(=O)CCC2=O)cc1 [A8.017],IC50,[5],15.6 µM
O=C(N/N=C/c1ccco1)c1cc(-c2ccc(F)cc2)n[nH]1 [A4.031],IC50,[3],14.4 µM
CCOc1ccc(CC(=O)NO)cc1 [A1.006],IC50,"Table 1, unstarred values, read-out: IC50APN",7.5 µM
COC(=O)c1ccc(-c2ccc(/C=C3\C(=O)N(CCCO)C(=O)C(C#N)=C3C)o2)cc1 [A9.008],IC50,[4],5 µM
CCOC(=O)C1=C2SCC(=O)N2C(N)=C(C#N)C1 [A14.003],IC50,"Table 14, read-out: IC50APN",23.1 µM
